Where two headings read alike, the source gives them in different places.
Columns and labels:
NMDAR2D [1] = target: T1, NMDAR2D (Homo sapiens, UniProt O15399); test: NMDAR agonist assay, [3H]MK-801 binding, NMDAR2D expressing HEK cell membranes; format: biochemical; settings: 50 μM glutamate
T1 construct: expressed in transfected cells; host or cells: HEK cells (membrane extract)
Protocol: (§1) Assays were conducted as described by Moskal et al., “GLYX-13: a monoclonal antibody-derived peptide that acts as an N-methyl-D-aspartate receptor modulator,” Neuropharmacology, 49, 1077-87, 2005. These studies were designed to determine if the test compounds act to facilitate NMDAR activation in NMDAR2A, NMDAR2B, NMDAR2C or NMDAR2D expressing HEK cell membranes as measured by increases in [^3H]MK-801 binding.
(§2) In the assay, 300 μg of NMDAR expressing HEK cell membrane extract protein was preincubated for 15 minutes at […] in the presence of saturating concentrations of glutamate (50 μM) and varying concentrations of test compound (1×10^−15M-1×10^−7M), or 1 mM glycine. Following the addition of 0.3 μCi of [3H]MK-801 (22.5 Ci/mmol), reactions were again incubated for 15 minutes at 25° C. (nonequilibrium conditions). Bound and free [3H]MK-801 were separated via rapid filtration using a Brandel apparatus.
(§3) In analyzing the data, the DPM (disintegrations per minute) of [3H]MK-801 remaining on the filter were measured for each concentration of test compound or for 1 mM glycine. The DPM values for each concentration of a ligand (N=2) were averaged. The baseline value was determined from the best fit curve of the DPM values modeled using the GraphPad program and the log(agonist) vs. response (three parameters) algorithm was then subtracted from all points in the dataset. The % maximal [^3H]MK-801 binding was then calculated relative to that of 1 mM glycine: all baseline subtracted DPM values were divided by the average value for 1 mM glycine. The EC50 and % maximal activity were then obtained from the best fit curve of the % maximal [3H]MK-801 binding data modelled using the GraphPad program and the log(agonist) vs. response (three parameters) algorithm.
(§4) The tables below summarize the results for the wild type […] NMDAR2A, NMDAR2B, NMDAR2C, and NMDAR2D, and whether the compound is not an agonist (−), is an agonist (+), or is a strong agonist (++), where column A is based on the % maximal [3H]MK-801 binding relative to 1 mM glycine (−=0; <100%=+; and >100%=++); and column B is based on log EC50 values (0=−; ≥1×10^−9 M (e.g., −8)=+; and <1×10^−9 M (e.g., −10)=++).

NMDAR2D [2] = target: T2, NMDAR2D (Homo sapiens, UniProt O15399+Q05586); test: as above; format: biochemical; settings: 50 μM glutamate; read-out: NMDAR2D B: log EC50 (converted)
T2 construct: expressed in transfected cells; host or cells: HEK cells (membrane extract)
Protocol: as §1, §2, §3, §4

NMDAR2A = target: T3, NMDAR2A (Homo sapiens, UniProt Q12879); test: NMDAR agonist assay, [3H]MK-801 binding, NMDAR2A expressing HEK cell membranes; format: biochemical; settings: 50 μM glutamate; for EC50: read-out: NMDAR2A B: log EC50 (converted); for Emax: 0.25 h, read-out: NMDAR2A A: % maximal [3H]MK-801 binding relative to 1 mM glycine; for Emax / NMDAR2A A: % maximal [3H]MK-801 binding relative to 1 mM glycine: relative to 1 mM glycine
T3 construct: expressed in transfected cells; host or cells: HEK cells (membrane extract)
T3 sequence (Q12879 23-1464, species assumed, other chains not shown): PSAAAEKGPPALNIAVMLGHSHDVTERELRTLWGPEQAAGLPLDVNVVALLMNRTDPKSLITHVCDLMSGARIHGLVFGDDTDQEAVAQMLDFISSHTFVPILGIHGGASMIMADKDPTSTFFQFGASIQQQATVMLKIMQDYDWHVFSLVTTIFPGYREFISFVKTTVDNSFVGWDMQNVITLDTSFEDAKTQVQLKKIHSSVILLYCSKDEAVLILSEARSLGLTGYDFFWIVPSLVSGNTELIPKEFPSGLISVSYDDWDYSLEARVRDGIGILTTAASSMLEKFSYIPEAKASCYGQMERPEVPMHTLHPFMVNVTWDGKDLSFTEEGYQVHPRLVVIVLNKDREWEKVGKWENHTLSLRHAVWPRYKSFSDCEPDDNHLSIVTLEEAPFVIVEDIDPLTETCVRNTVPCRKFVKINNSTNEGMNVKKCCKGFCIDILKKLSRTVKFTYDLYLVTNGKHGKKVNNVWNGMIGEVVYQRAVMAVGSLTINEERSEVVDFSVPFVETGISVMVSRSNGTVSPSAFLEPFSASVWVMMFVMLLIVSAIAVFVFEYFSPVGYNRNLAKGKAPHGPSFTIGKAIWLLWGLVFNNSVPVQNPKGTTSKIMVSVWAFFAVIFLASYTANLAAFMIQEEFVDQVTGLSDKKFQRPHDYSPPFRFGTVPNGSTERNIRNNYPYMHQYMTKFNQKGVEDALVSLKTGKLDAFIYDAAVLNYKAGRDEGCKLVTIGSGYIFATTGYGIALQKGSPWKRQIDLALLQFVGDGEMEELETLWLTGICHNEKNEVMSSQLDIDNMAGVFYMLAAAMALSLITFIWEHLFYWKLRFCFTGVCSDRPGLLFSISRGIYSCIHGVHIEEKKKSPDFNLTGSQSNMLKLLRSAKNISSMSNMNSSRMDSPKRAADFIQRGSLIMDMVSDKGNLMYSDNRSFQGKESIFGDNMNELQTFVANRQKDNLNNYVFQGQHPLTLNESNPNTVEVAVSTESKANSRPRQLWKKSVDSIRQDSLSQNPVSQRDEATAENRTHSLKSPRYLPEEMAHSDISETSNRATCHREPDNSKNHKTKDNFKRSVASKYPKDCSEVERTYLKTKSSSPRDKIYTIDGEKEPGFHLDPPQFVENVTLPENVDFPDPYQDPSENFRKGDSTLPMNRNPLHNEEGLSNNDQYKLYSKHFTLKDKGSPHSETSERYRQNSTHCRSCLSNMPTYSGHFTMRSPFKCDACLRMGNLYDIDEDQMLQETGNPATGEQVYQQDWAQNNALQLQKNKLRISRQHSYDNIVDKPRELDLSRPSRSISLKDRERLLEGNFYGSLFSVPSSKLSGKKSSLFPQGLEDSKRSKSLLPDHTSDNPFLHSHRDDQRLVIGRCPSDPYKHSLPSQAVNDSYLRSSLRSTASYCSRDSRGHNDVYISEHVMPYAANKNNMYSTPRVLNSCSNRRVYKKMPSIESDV
How it was run: (§5)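 Membranes from HEK cells (300 μg protein) preincubated 15 min with 50 μM glutamate plus compound (1×10^−15–1×10^−7 M) or 1 mM glycine, then with 0.3 μCi [3H]MK-801 for 15 min at 25° C. (nonequilibrium); filter-bound DPM, baseline-subtracted, expressed as % of 1 mM glycine; EC50 and % maximum from three-parameter fit.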

Plasma stability (Rat) = format: in vitro ADME; settings: after 60 minutes
Protocol: (§6) Plasma stability of disclosed compounds was investigated. The following table indicates the percent of compound remaining after 60 minutes.

Plasma stability (Human) = format: in vitro ADME; settings: after 60 minutes
Protocol: as §6

[3] = Oral pharmacokinetics in Sprague Dawley rats (plasma, brain, CSF); format: in vivo; settings: rat
Protocol: In another experiment, Sprague Dawley rats were dosed per os (oral gavage) using a normal saline formulation containing 10 mg/kg of the compounds identified in the table below. Plasma, brain, and CSF samples were analyzed at various time points over a 24 hour period. The table below summarizes the results of the oral pharmacokinetics, where the first three values (Tmax, Cmax and AUClast) are plasma values.

Sprague Dawley rats = test: Porsolt forced swim test; format: in vivo; settings: 0.1 mg/kg
Protocol: A non-clinical in vivo pharmacology study (Porsolt assay) was performed to measure antidepressant-like effects. The study allowed for the evaluation of the effects of each compound on the Porsolt forced swim test as assessed by the rats' response (reduced floating time) during a 5-minute swimming test.
Male 2-3 month old Sprague Dawley rats were used (Harlan, Indianapolis, Ind.). Rats were housed in Lucite cages with aspen wood chip bedding, maintained on a 12:12 light:dark cycle (lights on at 5 AM), and given ad libitum access to Purina lab chow (USA) and tap water throughout the study.
The Porsolt forced swim test adapted for use in rats was performed as described by Burgdorf et al., (The long-lasting antidepressant effects of rapastinel (GLYX-13) are associated with a metaplasticity process in the medial prefrontal cortex and hippocampus. Neuroscience 308:202-211, 2015). Animals were placed in a 46 cm tall×20 cm in diameter clear glass tube filled to 30 cm with tap water (23±1° C.) for 15 min on the first day (habituation) and 5 min on the subsequent test day. Animals were tested 1 h or 24 h post-dosing with the test compounds or vehicle control (0.5% sodium carboxymethyl cellulose in 0.9% sterile saline). A subset of compounds tested at 1 h post-dosing was tested again 1 wk post-dosing. Animals received a 15 min habituation session 1 day before the first 5 min test. Water was changed after every other animal. Animals were videotaped, and floating time as defined as the minimal amount of effort required to keep the animals head above water was scored offline by a blinded experimenter with high inter-rater reliability (Pearson's r >0.9).

[4] = Microsomal stability (Rat); format: in vitro ADME; settings: after 60 minutes
Protocol: (§7) Microsomal stability of disclosed compounds was investigated. The following table indicates the percent of compound remaining after 60 minutes.

NMDAR2B = target: T4, NMDAR2B (Homo sapiens, UniProt Q13224); test: NMDAR agonist assay, [3H]MK-801 binding, NMDAR2B expressing HEK cell membranes; format: biochemical; settings: 50 μM glutamate; for EC50: read-out: NMDAR2B B: log EC50 (converted)
T4 construct: expressed in transfected cells; host or cells: HEK cells (membrane extract)
T4 sequence (Q13224 27-1484, species assumed, other chains not shown): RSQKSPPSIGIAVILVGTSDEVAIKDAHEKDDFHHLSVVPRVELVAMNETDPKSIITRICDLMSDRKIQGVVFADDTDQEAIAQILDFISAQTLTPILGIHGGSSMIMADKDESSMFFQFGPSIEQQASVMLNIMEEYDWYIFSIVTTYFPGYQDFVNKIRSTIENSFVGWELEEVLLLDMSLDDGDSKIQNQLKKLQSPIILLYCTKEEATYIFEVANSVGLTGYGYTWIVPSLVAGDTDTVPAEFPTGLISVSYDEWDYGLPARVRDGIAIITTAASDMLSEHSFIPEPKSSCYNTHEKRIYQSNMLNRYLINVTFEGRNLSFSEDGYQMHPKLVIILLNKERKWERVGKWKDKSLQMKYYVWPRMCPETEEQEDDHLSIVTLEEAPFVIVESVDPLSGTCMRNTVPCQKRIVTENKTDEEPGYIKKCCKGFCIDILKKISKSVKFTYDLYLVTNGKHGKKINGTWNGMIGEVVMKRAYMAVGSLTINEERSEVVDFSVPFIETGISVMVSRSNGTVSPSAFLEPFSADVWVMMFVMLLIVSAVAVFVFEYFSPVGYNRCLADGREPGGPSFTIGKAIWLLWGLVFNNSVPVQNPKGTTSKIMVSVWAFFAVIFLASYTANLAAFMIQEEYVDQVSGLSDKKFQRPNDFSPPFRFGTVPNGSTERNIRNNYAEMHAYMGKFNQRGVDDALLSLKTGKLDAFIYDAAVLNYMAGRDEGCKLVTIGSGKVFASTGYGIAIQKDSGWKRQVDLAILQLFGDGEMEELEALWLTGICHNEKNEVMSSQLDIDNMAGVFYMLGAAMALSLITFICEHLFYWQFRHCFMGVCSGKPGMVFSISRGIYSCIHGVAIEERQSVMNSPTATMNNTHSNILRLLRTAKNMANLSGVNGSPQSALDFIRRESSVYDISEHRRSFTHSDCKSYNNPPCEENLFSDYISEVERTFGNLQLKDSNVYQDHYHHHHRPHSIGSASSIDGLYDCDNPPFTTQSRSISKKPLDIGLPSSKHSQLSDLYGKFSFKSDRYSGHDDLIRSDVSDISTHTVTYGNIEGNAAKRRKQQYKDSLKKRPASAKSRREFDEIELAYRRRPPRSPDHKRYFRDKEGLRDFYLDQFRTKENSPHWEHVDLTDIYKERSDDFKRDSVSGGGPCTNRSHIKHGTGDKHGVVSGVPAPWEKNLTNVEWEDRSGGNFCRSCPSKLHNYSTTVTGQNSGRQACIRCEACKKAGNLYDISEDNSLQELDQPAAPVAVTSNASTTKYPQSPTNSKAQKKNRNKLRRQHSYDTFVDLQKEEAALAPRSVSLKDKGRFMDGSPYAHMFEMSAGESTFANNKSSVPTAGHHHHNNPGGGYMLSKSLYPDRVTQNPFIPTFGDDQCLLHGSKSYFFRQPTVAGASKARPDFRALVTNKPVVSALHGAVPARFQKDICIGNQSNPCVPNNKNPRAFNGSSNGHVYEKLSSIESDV
How it was run: as §5

[5] = Microsomal stability (Human); format: in vitro ADME; settings: after 60 minutes
Protocol: as §7

[6] = IV pharmacokinetics in Sprague Dawley rats; format: in vivo; settings: rat, 2 mg/kg, normal saline; for Vd: read-out: Vss
Protocol: Sprague Dawley rats were dosed intravenously using a normal saline formulation containing 2 mg/kg of the compounds identified in the below table. The table below summarizes the results of the IV pharmacokinetics.

NMDAR2C = target: T5, NMDAR2C (Homo sapiens, UniProt Q14957); test: NMDAR agonist assay, [3H]MK-801 binding, NMDAR2C expressing HEK cell membranes; format: biochemical; settings: 50 μM glutamate; for EC50: read-out: NMDAR2C B: log EC50 (converted)
T5 construct: expressed in transfected cells; host or cells: HEK cells (membrane extract)
T5 sequence (Q14957 20-1233, species assumed, other chains not shown): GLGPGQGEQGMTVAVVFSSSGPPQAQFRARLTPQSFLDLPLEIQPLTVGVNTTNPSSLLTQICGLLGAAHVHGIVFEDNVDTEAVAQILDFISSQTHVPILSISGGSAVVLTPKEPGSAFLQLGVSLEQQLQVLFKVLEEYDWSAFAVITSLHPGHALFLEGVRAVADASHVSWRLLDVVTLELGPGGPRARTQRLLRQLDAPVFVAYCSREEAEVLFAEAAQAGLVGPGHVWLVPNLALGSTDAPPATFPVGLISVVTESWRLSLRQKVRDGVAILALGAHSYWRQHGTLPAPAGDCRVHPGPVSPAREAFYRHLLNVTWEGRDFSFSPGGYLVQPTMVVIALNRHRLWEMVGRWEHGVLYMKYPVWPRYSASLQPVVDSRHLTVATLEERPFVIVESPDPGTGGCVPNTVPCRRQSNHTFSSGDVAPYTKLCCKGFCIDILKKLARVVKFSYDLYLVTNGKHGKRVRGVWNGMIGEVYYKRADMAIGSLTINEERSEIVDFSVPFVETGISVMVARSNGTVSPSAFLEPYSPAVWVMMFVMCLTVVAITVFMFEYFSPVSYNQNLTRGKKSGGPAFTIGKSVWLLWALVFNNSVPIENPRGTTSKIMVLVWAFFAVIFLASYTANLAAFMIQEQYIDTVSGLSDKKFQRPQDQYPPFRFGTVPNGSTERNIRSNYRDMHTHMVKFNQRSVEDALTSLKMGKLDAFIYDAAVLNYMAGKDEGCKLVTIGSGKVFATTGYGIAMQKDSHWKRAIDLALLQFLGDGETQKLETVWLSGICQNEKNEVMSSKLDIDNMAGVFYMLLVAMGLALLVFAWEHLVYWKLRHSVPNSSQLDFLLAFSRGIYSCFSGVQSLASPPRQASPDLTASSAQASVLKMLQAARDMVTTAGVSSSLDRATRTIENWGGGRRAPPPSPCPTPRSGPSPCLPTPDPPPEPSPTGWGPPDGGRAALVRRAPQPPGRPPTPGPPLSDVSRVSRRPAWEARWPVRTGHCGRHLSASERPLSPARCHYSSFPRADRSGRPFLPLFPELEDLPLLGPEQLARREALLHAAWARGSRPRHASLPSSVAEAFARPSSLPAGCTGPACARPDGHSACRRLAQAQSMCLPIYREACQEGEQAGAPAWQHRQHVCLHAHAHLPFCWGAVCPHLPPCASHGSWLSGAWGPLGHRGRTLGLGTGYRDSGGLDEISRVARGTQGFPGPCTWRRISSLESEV
Protocol: as §1, §2, §3, §4

[7] = Sprague-Dawley, po, per os, 10 mg/kg, plasma, read-out: Tmax
[8] = Sprague-Dawley, plasma, po, 10 mg/kg, per os
[9] = Sprague-Dawley, plasma, po, 10 mg/kg, per os 10 mg/kg
[10] = Sprague-Dawley, plasma, po, 10 mg/kg, per os, 10 mg/kg, plasma, read-out: Cmax
[11] = Sprague-Dawley, in vivo, iv, read-out: Cmax

SMILES	NMDAR2D A: % maximal [3H]MK-801 binding relative to 1 mM glycine (NMDAR2D [1])	EC50 (NMDAR2A)	Plasma (Rat): percent of compound remaining (Plasma stability (Rat))	Plasma (Human): percent of compound remaining (Plasma stability (Human))	Tmax [3, 7]	AUC(0-t) [3, 8]	bioavailability [3, 9]	Cmax [3, 10]	CSF Cmax ([3]; per os, 10 mg/kg)	Brain Cmax ([3]; per os, 10 mg/kg)	% reduction in float time (Sprague Dawley rats; 1 h post-dose)	Significance vs. vehicle (Sprague Dawley rats; 1 h post-dose)	Microsomal (Rat): percent of compound remaining [4]	EC50 (NMDAR2B)	Microsomal (Human): percent of compound remaining [5]	AUC(0-t) ([6]; Sprague-Dawley, in vivo, iv)	clearance ([6]; Sprague-Dawley, in vivo, iv)	half-life ([6]; Sprague-Dawley, in vivo, iv)	Cmax [6, 11]	Vd ([6]; Sprague-Dawley, in vivo, iv)	further results
CC(C)(C)OC(=O)N1CCCCCC12CNC2=O (single isomer, unassigned) [EI-1, tert-butyl 1-oxo-2,5-diazaspiro[3.6]decane-5-carboxylate]	+ (<100%=+)	< 1 nM																			EC50 (NMDAR2D [2]): < 1 nM; Emax (NMDAR2A): < 100%
O=C1NCCCC[C@]12CCCN2 [AU-1, (S)-1,7-diazaspiro[4.6]undecan-6-one]	0%	≥ 1 nM	100%	100%	60 min	6960 ng·h/mL	75%	2440 ng/mL	199.26 ng/mL	514.7 ng/mL	86%	Yes	91%	< 1 nM	100%	1840 ng·h/mL	17.8 mL/min/kg	84.6 min	1620 ng/mL	1.63 L/kg	Emax (NMDAR2A): < 100%; Emax (NMDAR2B; relative to 1 mM glycine, read-out: NMDAR2B A: % maximal [3H]MK-801 binding relative to 1 mM glycine): < 100%; EC50 (NMDAR2C): < 1 nM; NMDAR2C A: % maximal [3H]MK-801 binding relative to 1 mM glycine (NMDAR2C): ++ (>100%=++)
CC(=O)N1CCCC12CC=CCNC2=O (single isomer, unassigned) [GG-2, 1-acetyl-1,7-diazaspiro[4.6]undec-9-en-6-one]		< 1 nM	101%	99%	15 min	19600 ng·h/mL	100%	9200 ng/mL	2271.94 ng/mL	1689.69 ng/mL	4%	No	106%	< 1 nM	88%	2550 ng·h/mL	13.1 mL/min/kg	32.4 min	3420 ng/mL	0.58 L/kg	
CC(C)(C)OC(=O)N1CCCC12CCCNC2=O (single isomer, unassigned) [EV-2, tert-butyl 6-oxo-1,7-diazaspiro[4.5]decane-1-carboxylate]	+ (<100%=+)	< 1 nM	79%	100%					2324.1 ng/mL	1213 ng/mL	84%	Yes	91%	< 1 nM	79%						EC50 (NMDAR2D [1]; read-out: NMDAR2D B: log EC50 (converted)): < 1 nM; % F ([3]; per os 10 mg/kg): 63%; AUC(0-last) ([3]; per os, 10 mg/kg, plasma): 3567.9 ng·h/mL; Cmax ([3]; per os, 10 mg/kg, plasma): 4346 ng/mL; Tmax ([3]; per os, 10 mg/kg, plasma): 15 min; % reduction in float time (Sprague Dawley rats; 24 h post-dose): 76%; Significance vs. vehicle (Sprague Dawley rats; 24 h post-dose): Yes; NMDAR2A A: % maximal [3H]MK-801 binding relative to 1 mM glycine (NMDAR2A): + (<100%=+); NMDAR2B A: % maximal [3H]MK-801 binding relative to 1 mM glycine (NMDAR2B; relative to 1 mM glycine): + (<100%=+); AUClast [6]: 1138.1 ng·h/mL; Cl [6]: 28.4 mL/min/kg; Cmax [6]: 2608.4 ng/mL; T1/2 [6]: 24.6 min; Vss [6]: 0.88 L/kg; EC50 (NMDAR2C): < 1 nM; NMDAR2C A: % maximal [3H]MK-801 binding relative to 1 mM glycine (NMDAR2C): + (<100%=+)
CC(C)CN1CCCC12CC=CCNC2=O (single isomer, unassigned) [GI-2, 1-isobutyl-1,7-diazaspiro[4.6]undec-9-en-6-one]		< 1 nM	104%	99%	25.2 min	150 ng·h/mL	9%	132 ng/mL	205.53 ng/mL	97.39 ng/mL			102%	< 1 nM	114%	326 ng·h/mL	101 mL/min/kg	19.2 min	976 ng/mL	2.25 L/kg	NMDAR2A A: % maximal [3H]MK-801 binding relative to 1 mM glycine (NMDAR2A): + (<100%=+); NMDAR2B A: % maximal [3H]MK-801 binding relative to 1 mM glycine (NMDAR2B; relative to 1 mM glycine): + (<100%=+)
O=C1NCC=CCC12CC(F)(F)CN2 (single isomer, unassigned) [GL-2, 3,3-difluoro-1,7-diazaspiro[4.6]undec-9-en-6-one]		< 1 nM	97%	91%	30 min	30500 ng·h/mL	53%	5820 ng/mL	4433.95 ng/mL	3556.03 ng/mL	6%	No	98%	< 1 nM	99%	11500 ng·h/mL	2.84 mL/min/kg	244 min	1630 ng/mL	1.15 L/kg	

From US20210047324A1 (Aptinyx Inc., priority 2018, published 2021)
